This is an account of results in paper PMC11996864, “A small-molecule inhibitor of BCL10-MALT1 interaction abrogates progression of diffuse large B cell lymphoma” (The Journal of Clinical Investigation, 2025).

For one data set, the system named is human primary T cells. Nature of the data set: Human T cell apoptosis, annexin V. Type of data set: cell-based. As for the experimental part: Annexin V Alexa 488
(ThermoFisher Scientific, Cat# A13201) and SYTOX Blue Dead Cell (ThermoFisher Scientific, Cat# S34857) stains were used to detect apoptosis in DLBCL cells after treatment with 1 µM compounds for 8 days in TMD8 and OCI-Ly1 and for 5 days in OCI-Ly3 cells, then analyzed with flow cytometry. The percentages of cells in early and late apoptosis were combined for […]
quantification. […]
Human T cell apoptosis. Human CD4/CD8 T cells were isolated from blood using Pan T Cell Isolation Kit (Miltenyi Biotec, Cat# 130-096-535), IRB exemption STUDY21080109. T cells were incubated with DynabeadsTM Human T-Activator CD3/CD28 (Thermo Fisher Scientific, Cat# 11131D) for 72 hours after which cells were grown in RPMI containing 10% FBS and IL-2 (Peprotech, Cat# 200-02). T cells were treated with M1i-124 (1 µM) or DMSO control with media change/drug treatment every 2-4 days. Apoptosis was evaluated on day 6 as described previously except that annexin V 647 was utilized (Invitrogen, A23204). Data is from 3 independent donors. […]

The test system of the next data set is TMD8 cells. The data set can be described thus: Apoptosis, annexin V/SYTOX Blue flow cytometry. In kind it is cell-based, human. As for the experimental part:
(§1) Cell proliferation, viability, and apoptosis assays. […]
The percentages of cells in early and late apoptosis were combined for
quantification. For CellTrace Violet, CellTiter-glo, and Annexin V apoptosis assays, cell were
cultured in media with 50% of the usual serum. […]

In the next data set the test system is TMD8 tumor xenografts. Nature of the data set: NF-κB target gene mRNA in TMD8 tumor xenografts, qRT-PCR. Type of data set: in vivo, mouse. On the procedure:
Total RNA extraction from the TMD8 tumor xenografts was performed using 80% TRIzol Reagent (Fisher Scientific, Cat# 15596026) and 20% Chloroform for tissue solubilization. After centrifugation, the supernatant was mixed with equal volume of 70% ETOH followed by RNA isolation using the RNeasy Plus Mini
Kit. RNA was transcribed into cDNA using High-Capacity cDNA Reverse Transcription Kit (Applied Biosystems, Cat# 4368814) according to manufacturer’s instructions. RT-PCR was performed using TaqMan Universal PCR Master Mix (Applied Biosystems, Cat# 4304437) and run on a StepOnePlus Real-Time PCR machine (Applied Biosystems). The following probes from ThermoFisher Scientific were used for qRT-PCR: IL2 TaqMan probe Hs00174114, IL6 TaqMan
(Real-time PCR tracks product formation cycle by cycle.)

Another data set has as its system OCI-Ly3 cells. The data set can be described thus: CellTiter-Glo ATP viability. Type of data set: cell-based, human. On the procedure:
as §1
Fluorescent Intensity (MFI) was analyzed by FlowJo (version 10.8.0, BD). CellTiter-glo luminescence assay (Promega, Cat# G7570) was used to quantify ATP levels as a surrogate marker of metabolic viability in DLBCL cells treated with compounds for 6-8 days. […]
The percentages of cells in early and late apoptosis were combined for quantification. For CellTrace Violet, CellTiter-glo, and Annexin V apoptosis assays, cell were cultured in media with 50% of the usual serum. […]
On the technique in general: Cellular ATP, detected with luciferase, serves as a proxy for viable cell number.

A further data set concerns OCI-Ly1 cells. The data set can be described thus: CellTiter-Glo ATP viability. Type of data set: cell-based, human. On the procedure: as §1
Fluorescent Intensity (MFI) was analyzed by FlowJo (version 10.8.0, BD). CellTiter-glo luminescence assay (Promega, Cat# G7570) was used to quantify ATP levels as a surrogate marker of metabolic viability in DLBCL cells treated with compounds for 6-8 days. Annexin V Alexa 488 (ThermoFisher Scientific, Cat# A13201) and SYTOX Blue Dead Cell (ThermoFisher Scientific, Cat# S34857) stains were used to detect apoptosis in DLBCL cells after treatment with 1 µM compounds for 8 days in TMD8 and OCI-Ly1 and for 5 days in OCI-Ly3 cells, then analyzed with flow cytometry. The percentages of cells in early and late apoptosis were combined for quantification. For CellTrace Violet, CellTiter-glo, and Annexin V apoptosis assays, cell were cultured in media with 50% of the usual serum. […]

A further data set has as its target T1, CYP2D6 (Homo sapiens, UniProt P10635).
T1 construct: from tissue; host or cells: pooled, mixed-gender human liver microsomes
The data set can be described thus: Reversible CYP inhibition in human liver microsomes. Type of data set: in vitro ADME. The following applies: read-out: Direct inhibition (IC50) CYP2D6. On the procedure:
(§2) Pharmacokinetic and cytochrome P450 inhibition studies. Studies were performed with the assistance of Touchstone Biosciences (Plymouth Meeting, Pennsylvania). […]
(§3) For reversible CYP […]
(§4) inhibition studies, different concentrations of M1i-124 were added to 0.2 mg/ml pooled, mixed-gender human liver microsomes (HLM). Each CYP450 isoform-specific probe substrate (CYP1A2, CYP2C9, CYP2C19, CYP2D6, and CYP3A4) was incubated individually with HLM and M1i-124 or corresponding positive control inhibitor (Phenacetin, Tolbutamaide, S-Mephenytoin, Dextromethorphan, Midazolam, and Testosterone). Samples were analyzed for metabolites of the probe substrates by LC-MS/MS at each of the test compound concentrations. A decrease in the formation of the metabolites compared to vehicle control was used to calculate the […]

A further data set concerns the target T2, CYP3A4T (Homo sapiens, UniProt P08684).
T2 construct: from tissue; host or cells: pooled, mixed-gender human liver microsomes
Described as above. The following applies: read-out: Direct inhibition (IC50) CYP3A4T. In kind it is in vitro ADME. As for the experimental part: as §2, §3, §4

For a further data set, the target named is T3, CYP1A2 (Homo sapiens, UniProt P05177).
T3 construct: from tissue; host or cells: pooled, mixed-gender human liver microsomes
The data set is described as above. In kind it is in vitro ADME. The following applies: read-out: Direct inhibition (IC50) CYP1A2. As for the experimental part:
as §2, §3, §4

A further data set concerns the target T4, CYP3A4M (Homo sapiens, UniProt P08684).
T4 construct: from tissue; host or cells: pooled, mixed-gender human liver microsomes
The data set is described as above. Type of data set: in vitro ADME. Particulars: read-out: Direct inhibition (IC50) CYP3A4M. On the procedure:
as §2, §3, §4

A further data set deals with T5, CYP2C9 (Homo sapiens, UniProt P11712).
T5 construct: from tissue; host or cells: pooled, mixed-gender human liver microsomes
The data set is described as above. Type of data set: in vitro ADME. Particulars: read-out: Direct inhibition (IC50) CYP2C9. As for the experimental part: as §2, §3, §4

Data set [1] has as its system MALT1 protein in DLBCL cells. The arrangement: method as in PMID 30024860, PMID 23238017. Particulars: result in words; cited from earlier work.
The mark [2] stands for this setting: 24-hour time point, result in words.

“And” between values parts separate entries of the source, which are not always exact repeats. Equal entries are not always repeated. “Also recorded” adds a separate entry of the source. Some results are limits rather than exact numbers.

T3 sequence (P05177 whole entry): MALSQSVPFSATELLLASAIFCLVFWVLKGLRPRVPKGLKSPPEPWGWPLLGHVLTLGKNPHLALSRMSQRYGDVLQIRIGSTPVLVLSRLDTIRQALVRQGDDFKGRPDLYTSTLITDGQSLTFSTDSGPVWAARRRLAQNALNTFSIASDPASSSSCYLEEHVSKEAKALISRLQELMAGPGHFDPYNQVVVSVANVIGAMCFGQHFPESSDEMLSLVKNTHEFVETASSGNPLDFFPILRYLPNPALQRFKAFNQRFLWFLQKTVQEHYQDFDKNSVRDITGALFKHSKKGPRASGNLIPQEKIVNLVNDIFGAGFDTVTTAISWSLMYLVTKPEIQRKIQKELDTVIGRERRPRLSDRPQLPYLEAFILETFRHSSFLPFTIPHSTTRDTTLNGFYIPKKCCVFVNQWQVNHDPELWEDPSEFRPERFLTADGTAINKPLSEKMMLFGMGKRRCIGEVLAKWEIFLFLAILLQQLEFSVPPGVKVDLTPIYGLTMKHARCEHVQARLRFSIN
T5 sequence (P11712 whole entry): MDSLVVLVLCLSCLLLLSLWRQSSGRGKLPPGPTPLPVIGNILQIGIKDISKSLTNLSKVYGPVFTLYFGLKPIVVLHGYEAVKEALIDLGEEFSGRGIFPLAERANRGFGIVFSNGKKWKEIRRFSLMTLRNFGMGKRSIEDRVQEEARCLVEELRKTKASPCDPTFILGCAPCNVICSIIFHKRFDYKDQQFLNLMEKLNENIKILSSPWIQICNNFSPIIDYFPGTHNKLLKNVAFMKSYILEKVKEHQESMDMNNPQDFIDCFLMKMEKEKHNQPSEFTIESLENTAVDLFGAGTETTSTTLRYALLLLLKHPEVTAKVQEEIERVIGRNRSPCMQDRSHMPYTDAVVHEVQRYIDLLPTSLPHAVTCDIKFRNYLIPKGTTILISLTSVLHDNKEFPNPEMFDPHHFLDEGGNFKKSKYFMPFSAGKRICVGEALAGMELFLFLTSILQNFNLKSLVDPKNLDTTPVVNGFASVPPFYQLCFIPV
T1 sequence (P10635 whole entry): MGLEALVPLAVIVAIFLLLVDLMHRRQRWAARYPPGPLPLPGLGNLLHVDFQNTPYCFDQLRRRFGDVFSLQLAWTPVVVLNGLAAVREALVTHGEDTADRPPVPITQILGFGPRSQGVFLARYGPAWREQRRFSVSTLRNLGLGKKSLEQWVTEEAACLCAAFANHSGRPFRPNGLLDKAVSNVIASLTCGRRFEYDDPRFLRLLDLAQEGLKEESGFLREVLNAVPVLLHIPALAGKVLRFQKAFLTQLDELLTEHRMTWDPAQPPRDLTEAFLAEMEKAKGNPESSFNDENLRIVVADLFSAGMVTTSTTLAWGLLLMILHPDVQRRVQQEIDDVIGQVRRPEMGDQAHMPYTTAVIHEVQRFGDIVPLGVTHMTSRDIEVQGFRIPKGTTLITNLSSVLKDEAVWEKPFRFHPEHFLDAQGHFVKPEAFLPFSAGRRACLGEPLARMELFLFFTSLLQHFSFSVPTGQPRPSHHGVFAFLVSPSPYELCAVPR
T4 sequence (P08684 whole entry): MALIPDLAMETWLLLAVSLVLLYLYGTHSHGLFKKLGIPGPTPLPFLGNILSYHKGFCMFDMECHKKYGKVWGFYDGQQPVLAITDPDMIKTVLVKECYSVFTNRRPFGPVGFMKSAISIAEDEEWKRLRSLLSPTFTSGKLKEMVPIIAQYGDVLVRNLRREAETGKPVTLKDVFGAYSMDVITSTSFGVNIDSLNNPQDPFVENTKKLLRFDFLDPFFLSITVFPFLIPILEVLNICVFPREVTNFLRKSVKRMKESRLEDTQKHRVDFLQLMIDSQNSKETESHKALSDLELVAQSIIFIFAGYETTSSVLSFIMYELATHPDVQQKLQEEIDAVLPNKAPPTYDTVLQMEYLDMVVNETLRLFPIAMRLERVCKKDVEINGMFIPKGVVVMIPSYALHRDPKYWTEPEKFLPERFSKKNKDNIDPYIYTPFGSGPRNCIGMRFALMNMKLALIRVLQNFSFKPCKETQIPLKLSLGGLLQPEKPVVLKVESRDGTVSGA
T2 sequence (P08684 whole entry): as above

On to `O=S(=O)(NCc1ccc2c(c1)OCO2)c1ccc(Cc2ccc(S(=O)(=O)NCc3ccc4c(c3)OCO4)cc2)cc1` [M1i-124], for which the “Annexin (% positivity)” value in the data set on human primary T cells (human primary T cells, 1 µM, day 6) is 5.305% and 5.353% and 4.227%; in the data set with TMD8 cells (TMD8, individual replicates) it was 78.2% and 93.8% and 81.35%. Also, the “apoptosis of human primary T cells” value with human primary T cells (vs untreated control, result in words) was “no difference”. In the data set with TMD8 cells (TMD8, 1 μM, 6 days), the “% Apoptotic cells” value is 84.2% and 72.1% and 76.6% and 77.4% and 72.4% and 73.5%. The “apoptosis of TMD8 cells” value in the data set on TMD8 cells (result in words) is given as “induced significant apoptosis; also recorded: selectively induced apoptosis”. Further, the “IRF4 mRNA level in tumors” value in the data set on TMD8 tumor xenografts (setting [2]) is reported as “no effect”. Besides, in the data set on TMD8 tumor xenografts (setting [2]), the “NFKBID mRNA level in tumors” value is on record as “no effect”. Further, the “NFKBIZ mRNA level in tumors” value in the data set with TMD8 tumor xenografts (setting [2]) is “did reduce”. The “TNFA mRNA level in tumors” value in the data set on TMD8 tumor xenografts (setting [2]) is given as “did reduce”. Further, the “IL10 mRNA levels in tumors” value in the data set on TMD8 tumor xenografts (24 hours after last dose, result in words) is recorded as “not affected”. For the same compound, the “IL6 mRNA level in tumors” value with TMD8 tumor xenografts (24 hours after last dose, vs DMSO, result in words) is given as “significant decrease”. Further, the “Gene expression by RT-PCR (normalized)” value in the data set with TMD8 tumor xenografts (NFKBID) is 0.81 and 0.72 and 0.56 and 0.88 and 1.03 and 0.82 and 0.76 and 0.92. The IC50 was around 0.5 µM in the data set with OCI-Ly3 cells (Homo sapiens, OCI-Ly3 cells, read-out: 50% cytotoxic concentration); 13 µM at CYP2D6; 40 µM at CYP3A4T; above 100 µM on CYP1A2; 28 µM at CYP3A4M; 21 µM at CYP2C9. In addition, the “Percent viability (ATP level)” value was 93.0259% and 81.697% and 95.3842% and 87.3232% in the data set on OCI-Ly3 cells (OCI-Ly3, M1i-124 (µM) 0.02); 107.435% and 78.839% and 101.939% and 104.596% with OCI-Ly3 cells (OCI-Ly3, M1i-124 (µM) 0.05); 97.8481% and 79.4097% and 92.5817% and 82.7797% in the data set with OCI-Ly3 cells (OCI-Ly3, M1i-124 (µM) 0.1); 93.5879% and 72.4634% and 88.6927% and 76.6947% in the data set on OCI-Ly3 cells (OCI-Ly3, M1i-124 (µM) 0.2); 38.3426% and 24.1881% and 19.3497% and 28.4648% in the data set with OCI-Ly3 cells (OCI-Ly3, M1i-124 (µM) 5). The “viability of OCI-Ly3 cells” value with OCI-Ly3 cells (result in words) is recorded as “dose-dependent decrease in viability”. The “CellTiter-Glo viability (% of control)” value was 107.27% and 98.9873% and 92.7867% with OCI-Ly1 cells (OCI-Ly1, M1i-124 (µM) 0.02); 97.4522% and 115.002% and 102.297% in the data set with OCI-Ly1 cells (OCI-Ly1, M1i-124 (µM) 0.05); 110.647% and 95.1607% and 118.153% in the data set with OCI-Ly1 cells (OCI-Ly1, M1i-124 (µM) 0.1); 107.42% and 81.8681% and 81.0306% in the data set with OCI-Ly1 cells (OCI-Ly1, M1i-124 (µM) 0.2); 117.286% and 98.6082% and 99.6544% in the data set with OCI-Ly1 cells (OCI-Ly1, M1i-124 (µM) 0.5); 125.229% and 113.171% and 94.1756% in the data set with OCI-Ly1 cells (OCI-Ly1, M1i-124 (µM) 1). Further, the “CellTiter-Glo viability (% of control)” value was 125.761% and 123.625% and 96.808% with OCI-Ly1 cells (OCI-Ly1, M1i-124 (µM) 2); 145.729% and 138.657% and 113.755% in the data set on OCI-Ly1 cells (OCI-Ly1, M1i-124 (µM) 5).
Take `CN1CCCC(CN2c3ccccc3Sc3ccccc32)C1` (stereo not drawn) [Mepazine, mepazine, reference compound]: the MALT1 protein level entry in [1] is given as “unaffected”.
